In patent US11279681B2, “3-alkyl bicyclic [4,5,0] hydroxamic acids as HDAC inhibitors” (Valo Health, Inc., priority 2015, dated 2022):

These compounds were tested against T1, HDAC6 (Homo sapiens, UniProt Q9UBN7) (assay: In vitro histone deacetylase assay: enzymatic HDAC6 electrophoretic mobility shift assay). Settings: full length human recombinant HDAC6, 1 nM enzyme, 2 μM peptide substrate RHKK(Ac)-NH2, 25° C.; read-out: Inhibitory Concentration (IC50) Values for Representative Compounds against HDAC6, Activity Range.
T1 sequence (Q9UBN7 1-1215): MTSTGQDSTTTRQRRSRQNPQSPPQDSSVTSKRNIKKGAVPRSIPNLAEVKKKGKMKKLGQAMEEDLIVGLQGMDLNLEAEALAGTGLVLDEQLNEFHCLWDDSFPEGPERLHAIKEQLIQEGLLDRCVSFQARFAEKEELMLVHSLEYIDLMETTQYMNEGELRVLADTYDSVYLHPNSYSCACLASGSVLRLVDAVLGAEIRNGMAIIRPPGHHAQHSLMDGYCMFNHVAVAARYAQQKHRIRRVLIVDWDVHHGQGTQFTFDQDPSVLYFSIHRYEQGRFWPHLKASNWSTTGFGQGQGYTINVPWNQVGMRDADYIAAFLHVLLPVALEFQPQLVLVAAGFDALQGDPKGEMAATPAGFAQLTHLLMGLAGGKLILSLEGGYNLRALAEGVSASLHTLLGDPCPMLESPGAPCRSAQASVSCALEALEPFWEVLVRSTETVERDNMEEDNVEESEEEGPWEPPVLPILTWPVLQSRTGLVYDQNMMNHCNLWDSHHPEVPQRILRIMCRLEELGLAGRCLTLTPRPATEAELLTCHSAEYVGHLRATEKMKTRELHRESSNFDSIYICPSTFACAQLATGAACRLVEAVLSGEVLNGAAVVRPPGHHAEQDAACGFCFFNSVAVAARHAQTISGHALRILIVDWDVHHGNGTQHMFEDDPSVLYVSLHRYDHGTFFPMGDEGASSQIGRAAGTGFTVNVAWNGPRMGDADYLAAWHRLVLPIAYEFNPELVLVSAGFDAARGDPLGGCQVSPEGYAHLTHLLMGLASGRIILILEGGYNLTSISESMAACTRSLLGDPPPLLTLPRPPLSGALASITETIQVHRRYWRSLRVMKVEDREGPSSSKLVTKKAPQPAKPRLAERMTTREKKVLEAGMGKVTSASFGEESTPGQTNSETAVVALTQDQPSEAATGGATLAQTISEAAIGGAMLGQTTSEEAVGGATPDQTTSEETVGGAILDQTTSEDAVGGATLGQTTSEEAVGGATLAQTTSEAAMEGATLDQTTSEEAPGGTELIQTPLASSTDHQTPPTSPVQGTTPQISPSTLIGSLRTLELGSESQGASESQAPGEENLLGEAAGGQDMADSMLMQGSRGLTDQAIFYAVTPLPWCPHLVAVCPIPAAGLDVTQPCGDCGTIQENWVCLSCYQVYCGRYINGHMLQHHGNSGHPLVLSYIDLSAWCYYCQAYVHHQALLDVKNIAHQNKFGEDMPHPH
Type: biochemical
Experimental: The enzymatic HDAC6 assay was performed using electrophoretic mobility shift assay. […] The enzymatic reactions were assembled in 384 well plates in a total volume of 25 μL in a reaction buffer composing: 100 mM HEPES, pH7.5, 25 mM KCl, 0.1% bovine serum albumin, 0.01% Triton X-100, 1% DMSO (from compounds) 2 μM of the fluorescently labeled peptide substrate and enzyme. The enzyme was added at a final concentration of 1 nM. The peptide substrate RHKK(Ac)-NH2 was used. The compounds were tested at 12 concentrations spaced by 3× dilution intervals. Negative control samples (0%-inhibition in the absence of inhibitor) and positive control samples (100%-inhibition) were assembled in replicates of four in each assay plate. The reactions were incubated at 25° C. and quenched by the addition of 45 μL of termination buffer (100 mM HEPES, pH 7.5, 0.01% Triton X-100, 0.05% SDS).
The terminated assay plates were analyzed on LabChip® 3000 microfluidic electrophoresis instrument (Perkin Elmer/Caliper Life Sciences). The fluorescence intensity of the electrophoretically separated de-acetylated product and substrate peptide was measured. Activity in each sample was determined as the product to sum ratio (PSR): P/(S+P), where P is the peak height of the product peptide and S is the peak height of the substrate peptide. Percent inhibition (Pinh) is determined using the following equation:
Pinh=(PSR0%−PSRinh)/(PSR0%−PSR100%)*100, where PSRinh is the product sum ratio in the presence of inhibitor, PSR0% is the average product sum ration in the absence of inhibitor and PSR100% is the average product sum ratio in 100%-inhibition control samples. The IC50 values of inhibitors were determined by fitting the %-inhibition curves with 4 parameter dose-response model using XLfit 4 software.

SMILES	IC50
O=C(NO)c1ccc2c(c1)S(=O)(=O)N(Cc1ccccc1)CCO2	100 to 500 nM
CC1COCCN1C(=O)N1CCOc2cc(C(=O)NO)ccc2C1 (stereo not shown) [N-hydroxy-4-(3-methylmorpholine-4-carbonyl)-2,3,4,5-tetrahydrobenzo[f][1,4]oxazepine-8-carboxamide]	100 to 500 nM
O=C1CN(Cc2ccc(Oc3ccccc3)cc2)Cc2cc(C(=O)NO)ccc2N1	≤ 100 nM
CC(c1ccccc1)N1CC(=O)Nc2ccc(C(=O)NO)cc2C1 (stereo not shown)	≤ 100 nM
O=C1CN(Cc2ccn3ccnc3c2)Cc2cc(C(=O)NO)ccc2N1	100 to 500 nM
COC1CCN(C(=O)N2CCOc3cc(C(=O)NO)ccc3C2)CC1 [N-hydroxy-4-(4-methoxypiperidine-1-carbonyl)-2,3,4,5-tetrahydrobenzo[f][1,4]oxazepine-8-carboxamide]	100 to 500 nM
COc1ccc(S(=O)(=O)N2CCOc3nc(C(=O)NO)ccc3C2)cc1	> 500 nM
COc1ccc(NC(=O)N2Cc3ccc(C(=O)NO)cc3O[C@@H](c3ccccc3)C2)cc1 [(S)-N8-hydroxy-N4-(4-methoxyphenyl)-2-phenyl-2,3-dihydrobenzo[f][1,4]oxazepine-4,8(5H)-dicarboxamide]	≤ 100 nM
O=C1CN(Cc2cccc(Cl)c2)Cc2cc(C(=O)NO)ccc2N1	100 to 500 nM
O=C1CN(Cc2ccc(-c3ccccn3)cc2)Cc2cc(C(=O)NO)ccc2N1	≤ 100 nM
COCCn1c(CN2CCOc3ccc(C(=O)NO)cc3C2)nc2ccccc21	> 500 nM
COc1ccc(CN2CCNc3ccc(C(=O)NO)cc3C2)cc1	> 500 nM
O=C(NO)c1ccc2c(c1)OCCN(C(=O)OC1CCCCC1)C2	≤ 100 nM
O=C1CN(Cc2cc(F)cc(F)c2)Cc2cc(C(=O)NO)ccc2N1	100 to 500 nM
O=C1CN(Cc2cc(Cl)cc(Cl)c2)Cc2cc(C(=O)NO)ccc2N1	≤ 100 nM
N#Cc1ccc(CN2CC(=O)Nc3ccc(C(=O)NO)cc3C2)cc1	100 to 500 nM
O=C1CN(CC2CC2)Cc2cc(C(=O)NO)ccc2N1	100 to 500 nM
COc1ccc(NC(=O)N2CCOc3cc(C(=O)NO)cnc3C2)cc1	≤ 100 nM
O=C1CN(Cc2ccccc2OC(F)(F)F)Cc2cc(C(=O)NO)ccc2N1	≤ 100 nM

Other lines, results leading:

IC50	SMILES
≤ 100 nM	C[C@H]1COc2cc(C(=O)NO)ccc2CN1CC1CC1 [(S)-4-(cyclopropylmethyl)-N-hydroxy-3-methyl-2,3,4,5-tetrahydrobenzo[f][1,4]oxazepine-8-carboxamide]
≤ 100 nM	COc1ccc(CN2Cc3ccc(C(=O)NO)cc3OCC23CC3)cc1 [N-hydroxy-4-(4-methoxybenzyl)-4,5-dihydro-2H-spiro[benzo[f][1,4]oxazepine-3,1′-cyclopropane]-8-carboxamide]
≤ 100 nM	C[C@H]1COc2cc(C(=O)NO)ccc2CN1c1cccnc1 [(S)-N-hydroxy-3-methyl-4-(pyridin-3-yl)-2,3,4,5-tetrahydrobenzo[f][1,4]oxazepine-8-carboxamide]
100 to 500 nM	CC(C)[C@@H]1COc2cc(C(=O)NO)ccc2CN1c1ccccc1
≤ 100 nM	C[C@H]1COc2cc(C(=O)NO)ccc2CN1c1ccccc1
100 to 500 nM	COc1ccc(CN2CCOc3cc(C(=O)NO)ccc3C2=O)cc1
≤ 100 nM	COCCN(C)C(=O)N1Cc2ccc(C(=O)NO)cc2OC[C@@H]1C
≤ 100 nM	CN1Cc2ccc(C(=O)NO)cc2OCC12CC2 [N-hydroxy-4-methyl-4,5-dihydro-2H-spiro[benzo[f][1,4]oxazepine-3,1′-cyclopropane]-8-carboxamide]
> 500 nM	CC(C)[C@H]1COc2cc(C(=O)NO)ccc2CN1c1ccncc1 [(S)-N-hydroxy-3-isopropyl-4-(pyridin-4-yl)-2,3,4,5-tetrahydrobenzo[f][1,4]oxazepine-8-carboxamide]
> 500 nM	COc1ccc(S(=O)(=O)N2Cc3ccc(C(=O)NO)cc3OC[C@H]2C)cc1
≤ 100 nM	C[C@H]1COc2cc(C(=O)NO)ccc2CN1C(=O)N1CCCCC1 [(S)-N-hydroxy-3-methyl-4-(piperidine-1-carbonyl)-2,3,4,5-tetrahydrobenzo[f][1,4]oxazepine-8-carboxamide]
100 to 500 nM	O=C(NO)c1ccc2c(c1)CN(c1nc3ccccc3[nH]1)CCO2
≤ 100 nM	COc1ccc(OC(=O)N2CCOc3cc(C(=O)NO)ccc3C2)cc1
≤ 100 nM	CC(C)OC(=O)N1Cc2ccc(C(=O)NO)cc2OC[C@@H]1C [isopropyl(S)-8-(hydroxycarbamoyl)-3-methyl-2,3-dihydrobenzo[f][1,4]oxazepine-4(5H)-carboxylate]
≤ 100 nM	C[C@H]1COc2cc(C(=O)NO)ccc2CN1CC1CCC1 [(S)-4-(cyclobutylmethyl)-N-hydroxy-3-methyl-2,3,4,5-tetrahydrobenzo[f][1,4]oxazepine-8-carboxamide]
≤ 100 nM	C[C@@H]1COc2cc(C(=O)NO)ccc2CN1C [(R)—N-hydroxy-3,4-dimethyl-2,3,4,5-tetrahydrobenzo[f][1,4]oxazepine-8-carboxamide]
≤ 100 nM	COC[C@@H]1COc2cc(C(=O)NO)ccc2CN1C [(R)-N-hydroxy-3-(methoxymethyl)-4-methyl-2,3,4,5-tetrahydrobenzo[f][1,4]oxazepine-8-carboxamide]
> 500 nM	C[C@H]1CN(C)Cc2ccc(C(=O)NO)cc2O1 [(S)—N-hydroxy-2,4-dimethyl-2,3,4,5-tetrahydrobenzo[f][1,4]oxazepine-8-carboxamide]
≤ 100 nM	COCCN1Cc2ccc(C(=O)NO)cc2OC[C@@H]1C [(S)-N-hydroxy-4-(2-methoxyethyl)-3-methyl-2,3,4,5-tetrahydrobenzo[f][1,4]oxazepine-8-carboxamide]
≤ 100 nM	C[C@H]1COc2cc(C(=O)NO)ccc2CN1C(=O)N(C)C1CCOCC1 [(S)-N8-hydroxy-N4,3-dimethyl-N4-(tetrahydro-2H-pyran-4-yl)-2,3-dihydrobenzo[f][1,4]oxazepine-4,8(5H)-dicarboxamide]
≤ 100 nM	COCCNC(=O)N1Cc2ccc(C(=O)NO)cc2OC[C@@H]1C [(S)-N8-hydroxy-N4-(2-methoxyethyl)-3-methyl-2,3-dihydrobenzo[f][1,4]oxazepine-4,8(5H)-dicarboxamide]
≤ 100 nM	C[C@H]1COc2cc(C(=O)NO)ccc2CN1C(=O)N1CCC1 [(S)-4-(azetidine-1-carbonyl)-N-hydroxy-3-methyl-2,3,4,5-tetrahydrobenzo[f][1,4]oxazepine-8-carboxamide]
≤ 100 nM	CC[C@H]1COc2cc(C(=O)NO)ccc2CN1Cc1ccc(OC)cc1 [(S)-3-ethyl-N-hydroxy-4-(4-methoxybenzyl)-2,3,4,5-tetrahydrobenzo[f][1,4]oxazepine-8-carboxamide]
100 to 500 nM	C[C@H]1COc2cc(C(=O)NO)ccc2CN1CCN1CCOCC1 [(S)-N-hydroxy-3-methyl-4-(2-morpholinoethyl)-2,3,4,5-tetrahydrobenzo[f][1,4]oxazepine-8-carboxamide]
100 to 500 nM	COc1ccc(CN2CCOc3cc(C(=O)NO)ccc3C2)cc1
100 to 500 nM	COc1ccc(CN2Cc3ccc(C(=O)NO)cc3O[C@@H](C)C2)cc1
≤ 100 nM	CCS(=O)(=O)N1Cc2ccc(C(=O)NO)cc2OC[C@@H]1C [(S)-4-(ethylsulfonyl)-N-hydroxy-3-methyl-2,3,4,5-tetrahydrobenzo[f][1,4]oxazepine-8-carboxamide]
